Assay results as given in US20240002368A1 (QILU REGOR THERAPEUTICS INC., priority 2020, published 2024).
Like-named read-outs stand apart in the source and are kept apart here.

Tested on: STING pathway
Experiment: IFN β reporter assay (HTRF, 2′3′-cGAMP-stimulated THP1 cells)
Assay type: cell-based, human
Conditions: Homo sapiens
Protocol: STING pathway deactivation by the compounds described herein was measured using THP1 cells. The THP1 Cells (obtained from ATCC, Cat #TIB-202) were maintained in RPMI-1640 (Gibco, Cat #22400105), 10% FBS, 1% Pen-Strep, 0.05 mM 2-mercaptoethanol. For STING activation, 2′3′-cGAMP (MW 718.38, obtained from Invivogen) was used and prepared in serum-free RPMI-1640 media. Growth media: RPMI-1640 (HEPES, glutamine), 10% FBS, 1% Pen-Strep, 0.05 mM 2-mercaptoethanol. Assay media: RPMI-1640 (HEPES, glutamine), 0.5% FBS. 2′3′-cGAMP: Dissolve 2′3′-cGAMP to 10 mM stock in H2O.
The cells were prepared and seeded at 100K, 90 μL/well with assay media in cell culture plate (Greiner 655180). The compounds were added in 96-well tissue culture plates by Tecan D300e for a final concentration of 0.00137-3 μM.
Lipo2000/3000 and 2′3′-cGAMP stock solutions were diluted respectively in serum-free RPMI-1640 media. The diluted 2′3′-cGAMP and Lipo (V/V=1:1) were mixed and stood for 15 min at room temperature. 10 μL 2,3-cGAMP/Lipofectamine (10×) was transferred to the 96-well assay plate with a final 2′3′-cGAMP concentration of 5 μM. The cell plates were centrifuged at 1000 rpm for 5 min after incubating at 37° C., 5% CO2 overnight.
All reagents (human IFN beta kit, Cisbio 62HIFNBPEG) were warmed to room temperature for at least 30 min before the assay. The instructions of the kit were followed to prepare the detection media. 14 μL of cell supernatants was transferred into their dedicated wells in 384-well plate. Then 2 μL of the activation reagent solution and 4 μL of the mixed antibody solution were added to all wells. The plate was sealed and incubated for 3 h at room temperature.
The HTRF signal was read in Envision (PerkinElmer). IFN β reporter activity was then measured. The calculated ratio is the signal at 665 nm/signal at 615 nm. IC50 values are calculated by using standard methods known in the art.

[1] = THP-1, THP1 cells, 5 μM 2′3′-cGAMP, IFN β secretion inhibition, class symbols, read-out: IFN β reporter activity IC50
[2] = THP-1, read-out: IFN β reporter activity IC50
[3] = THP-1, THP1 cells, 5 μM 2′3′-cGAMP, IFN β secretion inhibition, numeric values (comparators), read-out: IFN β reporter activity IC50

SMILES | IC50 [1] | other results
Cn1cc(C(=O)Nc2c[nH]c3cc(F)c(Cl)cc23)c2cc(F)c(C3CCOCC3)cc21 [Example 48] | 50 to 200 nM | 
O=C(Nc1c[nH]c2cc(F)c(F)cc12)c1cc2ccc(C(F)(F)F)cc2[nH]1 [Example 79] | 50 to 200 nM | 
Cn1cc(C(=O)Nc2c[nH]c3ccc(C#N)cc23)c2ccc(C3=CCOCC3)cc21 [Example 54] | 200 to 1000 nM | 
O=C(Nc1c[nH]c2ccc(F)cc12)c1n[nH]c2ncc(Br)cc12 [Example 7] | 50 to 200 nM | 
Cn1cc(C(=O)Nc2c[nH]c3ccc(F)cc23)c2cc(F)c(C3CCOCC3)cc21 [Example 81] | < 50 nM | 
Cn1cc(C(=O)Nc2c[nH]c3ccc(F)cc23)c2cc(C(F)(F)F)cnc21 [Example 22] |  | IC50 [2]: 200 to 1000 nM
Cn1cc(C(=O)Nc2c[nH]c3ccc(N4CCN(C(=O)OC(C)(C)C)CC4=O)cc23)c2ccc(C(F)(F)F)cc21 [Example 38] | 50 to 200 nM | 
O=C(Nc1c[nH]c2ccccc12)c1n[nH]c2cc(Br)ccc12 [Example 9] | < 50 nM | 
O=C(Nc1c[nH]c2ccc(F)cc12)c1n[nH]c2cc(C3CCOCC3)ccc12 [Example 28] | 50 to 200 nM | 
O=C(Nc1c[nH]c2ccc(F)cc12)c1n[nH]c2cc(C(F)(F)F)ccc12 [Example 8] | < 50 nM | 
O=C(Nc1c[nH]c2ccc(F)cc12)c1c[nH]c2cc(C(F)(F)F)ccc12 [Example 53] | < 50 nM | 
N#Cc1ccc2[nH]cc(NC(=O)c3cn(C4CC4)c4nc(O[C@H]5CCOC5)ccc34)c2c1 [Example 42] |  | IC50 [2]: 200 to 1000 nM
Cn1cc(C(=O)Nc2c[nH]c3ccccc23)c2ccc(C(F)(F)F)cc21 [Example 18] |  | IC50 [2]: 50 to 200 nM
O=C(Nc1c[nH]c2cc(F)c(F)cc12)c1cnc2[nH]ncc2c1 [Comparator A, reference compound] |  | IC50 [3]: > 30000 nM
O=C(Nc1c[nH]c2ccc(F)cc12)c1n[nH]c2cc(C3=CCOCC3)ccc12 [Example 29] | 50 to 200 nM | 
Cn1cc(C(=O)Nc2c[nH]c3ccc(F)cc23)c2cc(F)c(CNC3CCC(F)(F)CC3)cc21 [Example 100] | 50 to 200 nM | 

SMILES | IC50 [1] | other results
Cn1cc(C(=O)Nc2c[nH]c3ccc(F)cc23)c2ccccc21 [Example 35] |  | IC50 [2]: 200 to 1000 nM
Cn1cc(NC(=O)c2cn(C)c3cc(C(F)(F)F)ccc23)c2cc(C#N)ccc21 [Comparator D, reference compound] |  | IC50 [3]: 10000 nM
Cn1cc(C(=O)Nc2c[nH]c3ccc(C(N)=O)cc23)c2ccc(C(F)(F)F)cc21 [Example 34] | > 1000 nM | 
O=C(Nc1c[nH]c2ccc(F)cc12)c1n[nH]c2cc(CNCC(F)(F)F)ccc12 [Example 93] | 50 to 200 nM | 
O=C(Nc1c[nH]c2ccc(F)cc12)c1cn([C@@H]2CCOC2)c2cc(C(F)(F)F)ccc12 [Example 76] |  | IC50 [2]: 200 to 1000 nM
O=C(Nc1c[nH]c2ccccc12)c1n[nH]c2cc(C(F)(F)F)ccc12 [Example 31] | < 50 nM | 
N#Cc1ccc2[nH]cc(NC(=O)c3cn(C4CC4)c4nc(OCC(F)(F)F)ccc34)c2c1 [Example 41] |  | IC50 [2]: 50 to 200 nM
Cn1cc(C(=O)Nc2c[nH]c3ccc(F)cc23)c2cc(F)c(CN3CCOCC3)cc21 [Example 95] | 200 to 1000 nM | 
O=C(Nc1c[nH]c2cc(F)c(F)cc12)c1n[nH]c2ccccc12 [Example 63] | 50 to 200 nM | 
Cn1cc(C(=O)Nc2c[nH]c3ccc(F)cc23)c2ccc(C3=CCOCC3)cc21 [Example 72] | 50 to 200 nM | 
Cn1cc(C(=O)Nc2c[nH]c3cc(F)c(F)cc23)c2cc(F)c(CNCC(F)(F)F)cc21 [Example 106] | < 50 nM | 
Cn1nc(C(=O)Nc2c[nH]c3ccccc23)c2ccc(C(F)(F)F)cc21 [Example 1, N-(1H-indol-3-yl)-1-methyl-6-(trifluoromethyl)indazole-3-carboxamide] |  | IC50 [2]: 50 to 200 nM
O=C(Nc1c[nH]c2ccccc12)c1cc2ccc(C(F)(F)F)cc2[nH]1 [Example 56] | 50 to 200 nM | 
O=C(Nc1c[nH]c2ccc(F)cc12)c1cc2ccc(C(F)(F)F)cc2[nH]1 [Example 78] | 50 to 200 nM | 
O=C(Nc1c[nH]c2cc(F)c(F)cc12)c1cc2ccc(Br)cn2n1 [Example 58] | 200 to 1000 nM | 
O=C(Nc1c[nH]c2ccc(F)cc12)c1cnn2cc(Cl)ccc12 [Example 23] | 200 to 1000 nM | 
